Reference: EP0299975B1, “COMPOSITION FOR ARRESTING ANGIOGENESIS AND CAPILLARY, CELL OR MEMBRANE LEAKAGE” (Angiogenics Limited, priority 1986, dated 1987)

Columns and labels:
[1] = tested on: angiogenesis; assay: Steroids tested with heparin and heparin fragments against angiogenesis
Excerpt: Deltacortisone has not previously been disclosed for use in combination with heparin fragments generally, or pentosan polysulfate.

[2] = tested on: tumor angiogenesis; settings: hamster cheek pouch, under certain conditions; cited from earlier work
[3] = cited from earlier work
[4] = tested on: transitional cell carcinoma; assay: Subcutaneous transitional cell carcinoma in mice, oral or injected therapy; format: in vivo
Protocol: 100 mice injected with live transitional cell carcinoma subcutaneously, and were grown to a maximum size of 2 cm prior to therapy. The mice were given SP₅₄ and hydrocortisone orally and by injection. The composition was orally administered with SP₅₄ at 0.06 mg/ml and hydrocortisone at 0.5 mg/ml in drinking water. In others the composition was injected with 0.66 mg/ml SP₅₄ and hydrocortisone at 3 mg/ml twice daily, 0.55 ml.

Row | Compound | overcoming angiogenesis [1] | further results
1 | CC(C)CCC[C@@H](C)[C@H]1CC[C@H]2[C@@H]3CC=C4C[C@@H](O)CC[C@]4(C)[C@H]3CC[C@]12C [cholesterol] | ineffective | –
2 | CC(=O)[C@H]1CC[C@H]2[C@@H]3CC=C4C[C@@H](O)CC[C@]4(C)[C@H]3CC[C@]12C [pregnenolone] | ineffective | –
3 | CC(=O)[C@H]1CC[C@H]2[C@@H]3CCC4=CC(=O)CC[C@]4(C)[C@H]3CC[C@]12C [progesterone] | ineffective | –
4 | C[C@H]1C[C@@H]2[C@H]([C@@H](O)C[C@@]3(C)[C@H]2CC[C@]3(O)C(=O)CO)[C@@]2(C)C=CC(=O)C=C12 [6 alpha-methyl-prednisolone] | – | effect on tumor angiogenesis [2]: partially suppressed
5 | C[C@]12CC[C@H]3[C@@H](CCC4=CC(=O)CC[C@@]43C)[C@@H]1CC[C@@H]2O [testosterone] | ineffective | –
6 | C[C@]12C[C@H](O)[C@H]3[C@@H](CCC4=CC(=O)CC[C@@]43C)[C@@H]1CC[C@@H]2C(=O)CO [corticosterone] | ineffective | –
7 | C[C@]12CCC(=O)C=C1CC[C@@H]1[C@@H]2CC[C@@]2(C)[C@H]1CC[C@]2(O)C(=O)CO [cortexolone] | ineffective | –
8 | C[C@]12C=CC(=O)C=C1CC[C@@H]1[C@@H]2C(=O)C[C@@]2(C)[C@H]1CC[C@]2(O)C(=O)CO [Deltacortisone] | – | water solubility [3]: not water soluble to a sufficiently substantial extent
9 | C[C@]12CCC(=O)C=C1CC[C@@H]1[C@@H]2[C@@H](O)C[C@@]2(C)[C@H]1CC[C@]2(O)C(=O)CO [hydrocortisone] | – | effect on tumor ([4]; SP₅₄ eliminated from treatment): regression of tumor; lung metastasis ([4]; mice with transitional cell carcinoma after treatment): found to have lung metastasis
